{"source": "EPA's ToxValDB 9.5 (doi:10.2903/j.efsa.2016.4575)", "key": {"Apis mellifera": {"test_system": "Apis mellifera", "conditions": "acute, mortality"}, "Bibionidae": {"test_system": "Bibionidae", "conditions": "chronic/long-term; duration: 23 days"}, "Bird": {"test_system": "Bird", "conditions": "acute; oral; unspecified; mortality"}, "Canidae": {"test_system": "Canidae", "conditions": "Dog Other; for NOAEL: oral, hematological"}, "Colinus virginianus": {"test_system": "Colinus virginianus", "conditions": "chronic"}, "Coturnix japonica": {"test_system": "Coturnix japonica", "conditions": "acute; oral; M; mortality"}, "Daphnia magna": {"test_system": "Daphnia magna", "conditions": "chronic/long-term; duration: 21 days"}, "Folsomia candida": {"test_system": "Folsomia candida", "conditions": "chronic/long-term; reproduction"}, "Tagia sp.": {"test_system": "Tagia sp.", "conditions": "chronic/long-term; mortality"}, "Typhlodromus pyri": {"test_system": "Typhlodromus pyri", "assay": "LR50; higher = less toxic", "conditions": "not reported; mortality"}}}
{"smiles": "COc1cc(OC)nc(NC(=O)NS(=O)(=O)c2ncccc2C(F)(F)F)n1", "note": "[Flazasulfuron]", "values": [{"measurement": "LD50", "setting": "Apis mellifera; dermal", "value": "> 25.9", "unit": "µg/piece"}, {"measurement": "LD50", "setting": "Apis mellifera; oral, unspecified", "value": "> 46.3", "unit": "µg/piece"}, {"measurement": "NOEC", "setting": "Bibionidae", "value": 0.1, "unit": "mg/L"}, {"measurement": "LD50", "setting": "Bird", "value": 2120, "unit": "mg/kg-day"}, {"measurement": "NOAEL", "setting": "Canidae; chronic, duration: 1 years", "value": 2, "unit": "mg/kg-day"}, {"measurement": "LEC", "setting": "Canidae; repeat dose other", "value": 2, "unit": "mg/kg-day"}, {"measurement": "NOAEL", "setting": "Canidae; subchronic, duration: 90 days", "value": 2, "unit": "mg/kg-day"}, {"measurement": "NOAEL", "setting": "Colinus virginianus", "value": 95.9, "unit": "mg/kg-day"}, {"measurement": "LD50", "setting": "Coturnix japonica", "value": 995, "unit": "mg/kg-day"}, {"measurement": "NOEC", "setting": "Daphnia magna", "value": 6.2, "unit": "mg/L"}, {"measurement": "NOEC", "setting": "Folsomia candida", "value": 125, "unit": "mg/kg"}, {"measurement": "LC50", "setting": "Oncorhynchus mykiss; acute, duration: 96 hours, mortality", "value": 22, "unit": "mg/L"}, {"measurement": "NOEC", "setting": "Oncorhynchus mykiss; chronic/long-term, duration: 21 days", "value": 5, "unit": "mg/L"}, {"measurement": "LD50", "setting": "Rattus norvegicus; acute, oral, mortality", "value": 1320, "unit": "mg/kg-day"}, {"measurement": "NOAEL", "setting": "Rattus norvegicus; chronic, duration: 2 years, other", "value": 1.3, "unit": "mg/kg-day"}, {"measurement": "NOAEL", "setting": "Rattus norvegicus; reproduction developmental", "value": 11, "unit": "mg/kg-day"}, {"measurement": "NOAEL", "setting": "Rattus norvegicus; reproduction developmental, body weight", "value": 100, "unit": "mg/kg-day"}, {"measurement": "NOEC", "setting": "Tagia sp.", "value": 8, "unit": "mg/kg"}, {"measurement": "LR50", "setting": "Typhlodromus pyri", "value": "> 50", "unit": "g/ha"}]}
